According to EP0558661B1, “POLYAZAMACROCYCLIC COMPOUNDS FOR COMPLEXATION OF METAL IONS” (BOARD OF REGENTS THE UNIVERSITY OF TEXAS SYSTEM, priority 1990, dated 1992):
Read-outs that look alike come from different tables or passages of the source.

Legend:
[1] = KD of the DOTEP calcium complex by 31P NMR and pH potentiometry; type: binding; conditions: Ca(DOTEP); at pH 7.4
Procedure: The ^31P spectrum shown in Figure 9 was obtained on a solution containing approximately 1 mM Ca^2+ and 3 mM DOTEP in an aqueous solution at physiological pH. Clearly, the ^31P resonances of the free and bound forms of DOTEP have distinct chemical shifts and neither overlaps with the ^31P resonances of metabolites normally observed in tissue.
The value of KD at pH 7.4 reported above was determined by ^31P NMR (measuring the free and bound integrals as a function of pH in solutions containing known amounts of [Ca^2+]total and [DOTEP]total) and by pH potentiometry.

[2] = KD determination by 31P NMR (integration of free and metal bound resonances); type: binding
Procedure: ^1H NMR data was obtained on JEOL FX-200 NMR spectrometer using a 10 mm probe operating at room temperature. Studies on solutions of NOTPME and its complexes were performed on a General Electric GN-500 NMR spectrometer. A 10 mm broad band probe was tuned to 202.4 MHz for ^31P detection. Shifts for NOTPME and its complexes were measured using 85% H3PO4 as an external standard. Probe temperatures were accurate to ± 0.5°C.
Samples of NOTPME used for KD determinations by NMR consisted of 115 mM KCl, 20 mM NaCl and 10 mM HEPES buffered with Tris base at pH 7.4. Varying concentrations (typically 0.5 to 10 mM) of Mg^2+, Ca^2+ or Zn^2+ were added to the sample and the resulting ^31P NMR spectrum obtained. Resonance areas were determined by integration of peaks using the GE software.
The area of resonances corresponding to free and metal bound NOTPME were obtained by integration and their concentrations estimated.

[3] = Stability constants by potentiometric titration; type: binding; conditions: for log KML: potentiometry at 25°C, 1:1 metal and ligand, 0.1 M tetramethylammonium chloride
Procedure: (§1) Potentiometric titrations were conducted at 25°C using a Corning Ion Analyzer (model 250) and a Metrohm Dorsimat automatic burette (Brinkman Instruments). […] Na3NOTPME was dissolved in 0.1 M tetramethylammonium chloride, the pH adjusted to low pH value with HCl and titrated with 0.098 M KOH. KOH was standardized by potentiometric titration against potassium hydrogen phthalate and stored under N2 atmosphere. The hydrogen ion activity coefficient and Kw were determined separately in these same salt solutions. Stability constants of Zn(NOTPME)^-, Mg(NOTPME)^-, and Ca(NOTPME)^- were determined by potentiometric titration of solutions containing 1:1 ratio of metal and ligand. In all of the titrations, samples were covered by a layer of cyclohexane to exclude CO2.
(§2) Protonation constants (KHiL) and stability constants (KML, and KMHL) are defined by the following equations: KHiL = [Hi L] / {[Hi-1 (L] {H)^+ ]) [formula] KML = [ML] / {[M] [L]) [formula] KMHL (= [MHL] / {[ML] [H)^+ ]} [formula] Protonation and stability constants were obtained from the potentiometric data using a simplex non-linear algorithm run on an IBM PC.

[4] = Protonation constants by potentiometric titration; type: physicochemical; conditions: 0.1 m tetramethylammonium chloride
Procedure: as §1, §2
A representative potentiometric titration curve for NOTPME in 0.1 M tetramethylammonium chloride and 25°C is illustrated in Figure 2. […] The phosphorous shifts are very sensitive to protonation of the nitrogens in the polyaza ring, similar to that observed for the parent phosphonate NOTP [17]. The first two protonations (log K = 11.8, 3.65) result in ^31P shifts to low frequency which is consistent with protonation at two ring nitrogens. […] These differences in pK2 may reflect differences in the ability of the phosphonate versus the phosphonate monoester side chains to form internal hydrogen bonds with the protonated nitrogens.

RBCs = assay: Red blood cell loading of NOTPME and intracellular free Mg2+ by 31P NMR; type: cell-based, Human
Procedure: Fresh whole blood was obtained placed in heparinized tubes and centrifuged at 3000 g for 6 min. to remove the buffy coat. RBCs were then washed three times in 5 mM phosphate buffered saline at pH 7.4. RBCs at 50% hematocrit were suspended in the loading medium containing 120 mM NaCl, 5 mM MgCl2, 10 mM HEPES pH 7.4, 10 mM glucose, and 10 mM NOTPME and incubated at 37°C for 12 hours. No lysis of RBCs were observed during the loading procedure. The RBCs were centrifuged and the supernatant discarded. The RBCs were washed twice with phosphate buffered saline at pH 7.4 before suspension in an isotonic medium.
Figure 6 illustrates one application of NOTPME to detect intracellular free Mg^2+ in RBCs. NOTPME loaded RBCs (Figure 6.b) were prepared by incubating RBCs at 37°C in a loading medium containing NOTPME in the presence of 5mM MgCl2 for 12 hours. NOTPME loading into RBCs was not observed in the absence of MgCl2 in the loading medium.
As in the in vitro studies, two resonances were observed corresponding to free and Mg^2+ bound NOTPME in RBCs. […] Since intracellular free Mg^2+ levels in RBCs normally range between 0.2 - 0.3 mM [12,19,20], the high concentration of intracellular free Mg^2+ observed in this experiment must have resulted from transport of Mg^2+ as a complex with NOTPME. Upon addition of the divalent cation ionophore A23187 to the suspension medium, an increase in intracellular free Mg^2+ concentration (to 1.90 mM) was observed (data not shown).

red blood cells = assay: Red blood cell loading of NOTPME derivatives; type: cell-based; conditions: during the time course of NMR measurements, after loading with the derivatives
Procedure: NOTPME derivatives used are the benzoyl and acetyl derivatives. Fresh whole blood was obtained in heparinized tubes and centrifuged at 3000g for 3 minutes to remove the buffy coat. Packed red blood cells are then washed three times in 5 mM phosphate buffered saline at pH 7.4. Red blood cells at 50% hematocrit were suspended in the NOTPME derivative containing loading medium. The loading medium contained 130 mM NaCl, 5 mM NOTPME derivative (benzoyl or acetyl derivative), 1 mM adenine, 10 mM glucose, and 10 mM HEPES at pH 7.4. Red cells in the above loading medium were incubated at 25°C for 1 hour. No lysis of red blood cells were observed during the loading procedure. After loading with NOTPME derivatives for one hour, the red cell suspension was centrifuged and the supernatant discarded. The red cells are washed twice with 5 mM phosphate buffered saline at pH 7.4 before suspension in an isotonic saline for NMR measurements. […] After NMR measurements the sample was centrifuged and the supernatant analyzed for any leakage of NOTPME. No leak of NOTPME was observed during the time course of NMR measurements. thus, it is clear that these NOTPME derivatives enter the red cells, get hydrolyzed to NOTPME and remain inside red cells.

[5] = Solubility as observed on the isolated product; type: physicochemical
Procedure: 9.20 g of NOTPDE (14.15 mmol) was mixed with 2.50 g of NaOH in 9 ml H2O) and after 2 hours the entire reaction mixture was boiled until a clear solution was obtained (approximately 5 minutes). The solution was cooled to room temperature and was allowed to stand overnight. The crystals formed were filtered off from the viscous mother liquor using a pressure filter funnel with a coarse porosity grade filter disc. The crystals were washed once with cold absolute ethanol, three times with absolute ethanol-diethylether (1:1) mixture and finally with diethyl ether. The crystals of Na3NOTPME were dried in dry nitrogen stream at 25°C for 2 hours. Traces of H2O and ethanol were removed upon vacuum drying (10 mm Hg) NOTPME for 5 hours at 50°C. […] The yield of pure NOTPME was 40.8% (3.24 g, 5.77 mmol).
NOTPME trisodium salt (178.63 mg, 0.318 mmol) was dissolved in 4.0 ml anhydrous chloroform (freshly distilled from over P4O10) and 120 microliter acetyl chloride was added. The solution was stirred at room temperature for 24 hours in a tightly closed vessel. The solution was then evaporated under dry nitrogen atmosphere to a yellowish, very viscous oil. To the oil anhydrous ether was added and NOTPME-AC (precipitated as a sodium chloride adduct) was filtered off and dried at 35-40°C under dry nitrogen. NOTPME-AC (234.24 mg, 92.3% calculated on the basis of NOTPME-AC.3NaCl formula weight) is an extremely hygroscopic, water sensitive powder.
NOTPME trisodium salt (164.82 mg, 0.294 mmol) and benzoyl chloride (105 microliter, 0.883 mmol) were reacted in 4.0 ml anhydrous chloroform at room temperature for 24 hours. The rection mixture was worked up with identical method than was used in the synthesis of NOTPME-AC. The product NOTPME-B was get as a sodium chloride adduct (204.32 mg, 70.7% calculated on the basis of NOTPME-B.3NaCl formula weight). NOTPME-B is a very hygroscopic, water sensitive powder. It is soluble in water and chloroform and DMSO.

[6] = 0.1 m hcl
Procedure: In this experiment, Gd(DOTEP)^- and Gd(DOTA)^- were dissolved in 0.1M HCl and their decomposition to free Gd^3+ and free ligand were followed by water relaxation measurements.

Molecule: CCP(=O)(O)CN1CCN(CP(=O)(O)CC)CCN(CP(=O)(O)CC)CCN(CP(=O)(O)CC)CC1 [DOTEP]
- Kd [1]: 0.011 mM

Molecule: CCOP(=O)(O)CN1CCN(CP(=O)(O)OCC)CCN(CP(=O)(O)OCC)CC1 [NOTPME, 1,4,7-Triazacyclononane-N,N',N"-tris(methylenephosphonatemonoethylester)]
- Kd ([2]; Ca^2+ complex, 115 mM KCl, 20 mM NaCl, 10 mM HEPES, pH 7.4, read-out: KD (at 25°X)): 50 mM
- Kd ([2]; Ca^2+ complex, pH 7.4, read-out: KD (at 37°C)): 47.6 mM
- Kd ([2]; Mg^2+ complex, 31P NMR, 115 mM KCl, 20 mM NaCl, 10 mM HEPES, pH 7.4, read-out: KD (at 25°X)): 5.77 mM
- Kd ([2]; Mg^2+ complex, 31P NMR, pH 7.4, read-out: KD (at 37°C)): 4.66 mM
- higher affinity for Mg^2+ than for Ca^2+ ([2]; at physiological pH values): 10 fold
- log KML ([3]; Ca^2+): 5.1
- log KML ([3]; Mg^2+): 6.3
- Kd ([3]; Zn^2+ complex, estimated from log KML = 15.4, the ligand pK values and the proton concentration at pH 7.4): 0.01 nM
- pKa ([4]; 25°C, read-out: pK1 (first protonation constant, log K1)): 11.8
- pKa ([4]; 25°C, read-out: pK2 (second protonation constant, log K2)): 3.65
- pKa ([4]; 25°C, read-out: pK3): 1.4
- pKa ([4]; protonations of the phosphonate ester oxygens): < 1.4
- lysis of RBCs during the loading procedure (RBCs; 10 mM NOTPME, 5 mM MgCl2, 37°C, 12 hours, 50% hematocrit): No lysis
- loading into RBCs (RBCs; in the absence of MgCl2 in the loading medium): not observed
- loading into red blood cells (RBCs; in the presence of Mg^2+): readily loaded
- leakage of NOTPME into the supernatant (red blood cells): No leak
- solubility in chloroform [5]: fairly soluble
- solubility in water [5]: readily soluble

Molecule: CCOP(=O)(CN1CCN(CP(=O)(OCC)OC(C)=O)CCN(CP(=O)(OCC)OC(C)=O)CC1)OC(C)=O (centres unmarked) [NOTPME-AC, 1,4,7-triazacyclononane-N,N',N"-tris(methylenephosphonatemonoethylesteracetic acid anhydride)]
- solubility in DMSO [5]: readily soluble
- solubility in chloroform [5]: readily soluble
- solubility in water [5]: readily soluble

Molecule: CCOP(=O)(CN1CCN(CP(=O)(OCC)OC(=O)c2ccccc2)CCN(CP(=O)(OCC)OC(=O)c2ccccc2)CC1)OC(=O)c1ccccc1 (centres unmarked) [NOTPME-B]
- solubility in DMSO [5]: soluble
- solubility in chloroform [5]: soluble
- solubility in water [5]: soluble

Molecule: Gd(DOTA)^-
- half-lives for decomposition [6]: approximately 110 hrs.
